Our source for the TGI and GI50 values is PubChem BioAssay (NCI).

SMILES strings stand for the structures.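 Interpolation was linear, between the two tested concentrations surrounding the appropriate level; five concentrations were tested over 48 hours in 96-well plates. GI50 marks 50% less growth. TGI: total growth inhibition.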

What all share (assay): NCI-60 cell line screen, 48 h
For assay [1], the system named is NCI-H23 lung.
Assay [2] relates to HL-60(TB) leukemia.
Assay [3] concerns LOX IMVI melanoma.
In assay [4] the test system is MALME-3M melanoma.
The subject of assay [5] is HCC-2998 colon.
For assay [6], the system named is CAKI-1 renal.
Assay [7] relates to SF-268 CNS.
Assay [8] has as its system A498 renal.
Assay [9] has as its system NCI-H226 lung.

Consider `O=C(O)CCNS(=O)(=O)c1ccc(NC(=O)c2ccccc2)cc1`, for which the TGI in [1], in assay [2], in assay [3], in assay [4], in assay [5] and in assay [6] was > 100 µM throughout. For the same molecule, the TGI in assay [7] and in assay [8] was > 100 µM throughout.
In the case of `CCC1(O)C(=O)OCc2c1cc1n(c2=O)Cc2cc3ccccc3nc2-1` (centres undefined), the TGI in assay [1] was 0.0806 µM; in assay [2], 0.0659 µM; in assay [3], 1.33 µM; in assay [4], 11.8 µM; in assay [5], 11.2 µM; in assay [6], > 31.9 µM. Also, the TGI in assay [7] amounted to 15.2 µM; in assay [8], 4.15 µM.
`CCc1cccc(C)c1NS(=O)(=O)c1ccccc1`: the TGI in [1], in [2], in [4], in [9], in assay [5] and in [6] was > 100 µM in each case. Also, the TGI in [8] is > 100 µM.
In the case of `CC(=O)c1c(C(F)(F)F)n([O-])c2ccccc2[n+]1=O`, the GI50 in assay [1] is 1 µM; in assay [3], 1.31 µM; in assay [4], 0.652 µM; in assay [9], 1.46 µM; in [6], 1.21 µM; in [7], 1.49 µM. The GI50 in [8] is 1.56 µM. Further, the TGI in assay [1] came out at 2.43 µM; in [3] it was 4.58 µM; in [4], 3.06 µM; in assay [9], 3.91 µM; in assay [6], 3.8 µM; in [7], 6.13 µM. The same molecule had a TGI in assay [8] of 4.48 µM.
On to `C[N+](C)(C)CCC(=O)CC[N+](C)(C)C`, for which the TGI in assay [1] turned out to be 55.9 µM; in assay [2], 17.5 µM; in assay [4], 47.6 µM; in [5], 53.9 µM; in assay [6], 29.2 µM; in assay [7], 42.9 µM. The TGI in assay [8] was > 100 µM.
As for `Cc1nc(C(N)=O)c(N)n1CCN1CCN(C(=O)CCCCCCCCCCNC2N=CNc3nc[nH]c32)CC1` (centres undefined), the TGI in assay [1] is > 100 µM; in assay [2] it was 60.8 µM; in assay [3], > 100 µM; in [4] it was > 100 µM; in [5], > 100 µM; in assay [7] it was > 100 µM. For the same molecule, the TGI in [8] is > 100 µM.
For the molecule `O=C(NCCCOC(=O)CCCCCCCCC(=O)OCCCNC(=O)NC(=O)c1c[nH]c(=O)[nH]c1=O)NC(=O)c1c[nH]c(=O)[nH]c1=O`, the TGI in assay [1], in assay [2], in assay [3], in [4], in assay [5] and in [6] was > 100 µM in each case. In addition, the TGI in assay [7] and in assay [8] was > 100 µM each time.
In the case of `CCOC(=O)Cc1nc2ccc3c(c2[nH]c1=O)C(=O)c1ccccc1C3=O`, the TGI in assay [1], in assay [3], in [4], in assay [9], in [5] and in assay [6] was > 100 µM throughout. In addition, the TGI in assay [7] and in assay [8] was > 100 µM each time.
For the molecule `O=c1cc(-c2cccs2)[nH]c2cc3c(cc12)OCO3`, the TGI was > 100 µM in assay [1]; 40.1 µM in [2]; > 100 µM in assay [3]; > 100 µM in assay [4]; > 39.4 µM in assay [9]; > 51.6 µM in [5]. Also, the TGI was > 100 µM in assay [7] and 16.2 µM in assay [8].
With `CC1=C(C(=O)Nc2ccccc2C)C(c2ccc(Cl)cc2)C(C(=O)Nc2ccccc2C)=C(C)N1`, the TGI in [1], in assay [2], in [3], in assay [4], in assay [9] and in assay [5] was > 100 µM in each case. In addition, the TGI in assay [6] and in assay [7] was > 100 µM in each case.
For the molecule `O=C1CC(CC(=O)C2CCCCC2=O)C(=O)N1` (centres undefined), the TGI in assay [1], in assay [2], in assay [3], in [4], in [9] and in assay [5] was > 100 µM each time. Besides, the TGI in assay [6], in assay [7] and in assay [8] was > 100 µM in each case.
For the molecule `O=C1C[C@H]2CCCN2[C@@H](c2ccccc2)C1`, the TGI in assay [1], in [2], in assay [3], in assay [4], in [9] and in assay [5] was > 100 µM throughout. Also, the TGI in assay [6], in assay [7] and in assay [8] was > 100 µM each time.
On to `COC1=NCc2ccccc2-c2ccccc21`, for which the TGI in assay [1], in [2], in [3], in assay [4], in assay [9] and in assay [7] was > 100 µM in each case.
Regarding `COc1cc(Cl)cc(=O)c(O)c1OC`, the TGI in assay [1] is > 100 µM; in assay [2] it was > 80.9 µM; in assay [3] it was > 100 µM; in assay [4], > 100 µM; in [9], > 87.2 µM; in assay [5], > 100 µM. The TGI in [7] and in assay [8] was > 100 µM each time.
For the molecule `COC(=O)c1sc(C(=O)OC)c2c1CS(=O)C2`, the TGI in assay [1], in assay [2], in assay [3], in assay [4], in [9] and in assay [5] was > 100 µM each time. For the same molecule, the TGI in assay [6], in assay [7] and in assay [8] was > 100 µM throughout.
